Test results as given in ChEMBL document CHEMBL5625240, “Synthesis and evaluation of 2-NMPA derivatives as potential agents for prevention of osteoporosis in vitro and in vivo” (Eur J Med Chem, 2023).
Where “and” joins values, the source holds several entries; their conditions need not be identical. Identical values can stand only once. Calls of active or inactive are those of the source. No cut-off for these calls is given here.

Experiments:
BMDM [1] = experiment: Anti-osteoporosis activity in mouse BMDM cells assessed as inhibition of RANKL-induced osteoclastogenesis at 2 uM measured for 30 mins in presence of MCSF by TRAP staining based assay; format: functional; settings: for inhibition at 2 µM: Mus musculus, BMDM
BMDM [2] = experiment: Anti-osteoporosis activity in mouse BMDM cells assessed as inhibition of RANKL-induced osteoclastogenesis at 1 uM measured for 30 mins in presence of MCSF by TRAP staining based assay; format: functional; settings: 0.5 h
BMDM [3] = experiment: Anti-osteoporosis activity in mouse BMDM cells assessed as inhibition of […]-induced osteoclastogenesis at 2 uM measured for 30 mins in presence of MCSF by TRAP staining based assay; format: functional; settings: 0.5 h
Mus musculus [4] = experiment: Anti-osteoporosis activity in OVX-induced osteoporosis C57BL/6 mouse model assessed as prevention of bone loss in femur at 10 mg/kg, ip daily for 4 weeks by micro computed tomographic analysis; format: functional, organism-based
BMDM [5] = experiment: Inhibition of RANKL/M-CSF-induced osteoclastogenesis in mouse BMDM cells assessed as decrease in Acp5 mRNA level at 1 uM incubated for 4 days by qRT-PCR analysis; format: functional, cell-based; settings: time 4.0 day
BMDM [6] = experiment: Inhibition of RANKL/M-CSF-induced osteoclastogenesis in mouse BMDM cells assessed as decrease in Atp6v0d2 mRNA level at 1 uM incubated for 4 days by qRT-PCR analysis; format: functional, cell-based; settings: time 4.0 day
Mus musculus [7] = experiment: Anti-osteoporosis activity in OVX-induced osteoporosis C57BL/6 mouse model assessed as recovery of bone surface density in femur at 10 mg/kg, ip daily for 4 weeks by micro computed tomographic analysis; format: functional, organism-based
BMDM [8] = experiment: Inhibition of AKT phosphorylation in RANKL/M-CSF-induced mouse BMDM cells by Western blot analysis; format: cell-based; settings: dose 1.0 µM
BMDM [9] = experiment: Downregulation of TRAF6 expression in RANKL-induced mouse BMDM cells at 1 uM incubated for 4 days by Western blot analysis; format: functional, cell-based; settings: time 4.0 day
BMDM [10] = experiment: Inhibition of RANKL/M-CSF-induced osteoclastogenesis in mouse BMDM cells assessed as decrease in Dc-stamp mRNA level at 1 uM incubated for 4 days by qRT-PCR analysis; format: functional, cell-based; settings: time 4.0 day
BMDM [11] = experiment: Inhibition of RANKL/M-CSF-induced osteoclastogenesis in mouse BMDM cells assessed as decrease in Mmp9 mRNA level at 1 uM incubated for 4 days by qRT-PCR analysis; format: functional, cell-based; settings: time 4.0 day
Mus musculus [12] = experiment: Anti-osteoporosis activity in OVX-induced osteoporosis C57BL/6 mouse model assessed as reduction in […] level in serum at 10 mg/kg, ip daily for 4 weeks; format: functional, organism-based
BMDM [13] = experiment: Inhibition of RANKL/M-CSF-induced osteoclastogenesis in mouse BMDM cells assessed as decrease in Nfatc1 mRNA level at 1 uM incubated for 4 days by qRT-PCR analysis; format: functional, cell-based; settings: time 4.0 day
BMDM [14] = experiment: Anti-osteoclastogenesis activity in mouse BMDM cells assessed as inhibition of RANKL/M-CSF-induced osteoclasts differentiation at below 2 uM measured for 9 days by […] staining based assay; format: functional, cell-based; settings: time 9.0 day
BMDM [15] = experiment: Downregulation of c-src expression in RANKL-induced mouse BMDM cells at 1 uM incubated for 4 days by Western blot analysis; format: functional, cell-based; settings: time 4.0 day
Mus musculus [16] = experiment: Anti-osteoporosis activity in OVX-induced osteoporosis C57BL/6 mouse model assessed as recovery of trabecular number in femur at 10 mg/kg, ip daily for 4 weeks by micro computed tomographic analysis; format: functional, organism-based
BMDM [17] = experiment: Inhibition of RANKL/M-CSF-induced osteoclastogenesis in mouse BMDM cells assessed as decrease in bone resorption pit size at 500 to 2000 nM incubated for 6 days by microscopic analysis; format: functional, cell-based; settings: dose 500-2000 nM, time 6.0 day
[18] = target: T1, NF-kappa-B inhibitor alpha (Mus musculus) (UniProt Q9Z1E3); experiment: Inhibition of IkappaBalpha phosphorylation in RANKL/M-CSF-induced mouse BMDM cells by Western blot analysis; format: cell-based; settings: dose 1.0 µM
T1 sequence (whole entry): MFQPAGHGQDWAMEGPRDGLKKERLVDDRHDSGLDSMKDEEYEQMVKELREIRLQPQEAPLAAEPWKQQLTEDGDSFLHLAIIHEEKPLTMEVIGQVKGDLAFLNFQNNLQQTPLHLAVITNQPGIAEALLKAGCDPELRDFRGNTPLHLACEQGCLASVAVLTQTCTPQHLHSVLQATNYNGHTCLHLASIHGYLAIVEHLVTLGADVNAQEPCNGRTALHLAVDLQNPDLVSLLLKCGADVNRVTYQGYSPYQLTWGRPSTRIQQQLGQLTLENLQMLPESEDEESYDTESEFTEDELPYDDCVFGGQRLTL

BMDM [19] = experiment: Anti-osteoclastogenesis activity in mouse BMDM cells assessed as inhibition of RANKL/M-CSF-induced osteoclasts differentiation at 2 uM measured for 9 days by […] staining based assay; format: functional; settings: 216 h, time 9 day
BMDM [20] = experiment: Inhibition of PI3K phosphorylation in RANKL/M-CSF-induced mouse BMDM cells by Western blot analysis; format: cell-based; settings: dose 1.0 µM
BMDM [21] = experiment: Downregulation of NFATc1 expression in mouse RANKL-induced BMDM cells at 1 uM incubated for 4 days by Western blot analysis; format: functional, cell-based; settings: time 4.0 day
BMDM [22] = experiment: Anti-osteoclastogenesis activity in RANKL/M-CSF-induced mouse BMDM cells assessed as inhibition of TRAF6 protein expression at 1 uM measured for 4 days; format: functional, cell-based; settings: time 4.0 day
BMDM [23] = experiment: Cytotoxicity against mouse BMDM cells assessed as reduction in cell viability at < 4 uM incubated for 48 hrs; format: toxicity, cell-based
BMDM [24] = experiment: Downregulation of c-fos expression in RANKL-induced mouse BMDM cells at 1 uM incubated for 4 days by Western blot analysis; format: functional, cell-based; settings: time 4.0 day
BMDM [25] = experiment: Inhibition of RANKL/M-CSF-induced osteoclastogenesis in mouse BMDM cells assessed as decrease in CTSK mRNA level at 1 uM incubated for 4 days by qRT-PCR analysis; format: functional, cell-based; settings: time 4.0 day
Mus musculus [26] = experiment: Anti-osteoporosis activity in OVX-induced osteoporosis C57BL/6 mouse model assessed as recovery of trabecular separation in femur at 10 mg/kg, ip daily for 4 weeks by micro computed tomographic analysis; format: functional, organism-based
BMDM [27] = experiment: Inhibition of RANKL/M-CSF-induced osteoclastogenesis in mouse BMDM cells assessed as decrease in bone resorption pit number at 500 to 2000 nM incubated for 6 days by microscopic analysis; format: functional, cell-based; settings: dose 500-2000 nM, time 6.0 day
BMDM [28] = experiment: Inhibition of RANKL/M-CSF-induced osteoclastogenesis in mouse BMDM cells assessed as reduction in F-actin belt size formation at 1 uM incubated for 6 days by immunofluorescence assay; format: functional, cell-based; settings: time 6.0 day
BMDM [29] = experiment: Anti-osteoporosis activity in mouse BMDM cells assessed as inhibition of RANKL/M-CSF-induced osteoclasts formation measured for 4 days by TRAP staining based assay; format: functional, cell-based
BMDM [30] = experiment: Inhibition of RANKL/M-CSF-induced osteoclastogenesis in mouse BMDM cells assessed as reduction in F-actin belt size formation at 1000 nM incubated for 6 days by immunofluorescence assay; format: functional, cell-based; settings: time 6.0 day
Mus musculus [31] = experiment: Anti-osteoporosis activity in OVX-induced osteoporosis C57BL/6 mouse model assessed as recovery of trabecular volume in femur at 10 mg/kg, ip daily for 4 weeks by micro computed tomographic analysis; format: functional, organism-based
BMDM [32] = experiment: Downregulation of CTSK expression in RANKL-induced mouse BMDM cells at 1 uM incubated for 4 days by Western blot analysis; format: functional, cell-based; settings: time 4.0 day
BMDM [33] = experiment: Inhibition of RANKL/M-CSF-induced osteoclastogenesis in mouse BMDM cells assessed as reduction in F-actin belt size formation at 500 to 2000 nM incubated for 6 days by immunofluorescence assay; format: functional, cell-based; settings: dose 500-2000 nM, time 6.0 day
BMDM [34] = experiment: Inhibition of NF-kappaB phosphorylation in RANKL/M-CSF-induced mouse BMDM cells by Western blot analysis; format: cell-based; settings: dose 1.0 µM
BMDM [35] = experiment: Inhibition of RANKL/M-CSF-induced osteoclastogenesis in mouse BMDM cells assessed as decrease in bone resorption pit size at 1000 nM incubated for 6 days by microscopic analysis; format: functional, cell-based; settings: time 6.0 day

## O=C(CS(=O)(=O)c1ccccc1)Nc1cccc(Cl)c1N1CCOCC1
BMDM [1]; 0.5 h
  inhibition at 2 µM: 62.1%

## O=C(COc1ccccc1Cl)Nc1ccc(OS(=O)(=O)C(F)(F)F)cc1N1CCOCC1
BMDM [2]
  inhibition at 1 µM: 50.5%

## COC(=O)c1ccc(N2CCOCC2)c(NC(=O)COc2cccc(C)c2)c1
BMDM [1]; 0.5 h, 2 µM
  inhibition (INH): 94.58% and 52.52%
BMDM [3]
  inhibition at 2 µM: 2.77%
BMDM [2]
  inhibition at 1 µM: 52.5%

## CC(=O)Nc1ccc(S(=O)(=O)Oc2ccc(NC(=O)COc3ccccc3Cl)c(N3CCOCC3)c2)cc1
Mus musculus [4]
  Activity: Active
BMDM [5]
  inhibition: Active
BMDM [6]
  inhibition: Active
Mus musculus [7]
  Activity: Active
BMDM [8]
  inhibition: Active
BMDM [9]
  Activity: Active
BMDM [10]
  inhibition: Active
BMDM [11]
  inhibition: Active
Mus musculus [12]
  Activity: Active
BMDM [13]
  inhibition: Active
BMDM [14]
  inhibition: inactive
BMDM [15]
  Activity: Active
Mus musculus [16]
  Activity: Active
BMDM [17]
  inhibition: Active
[18]
  inhibition: Active
BMDM [19]
  inhibition at 2 µM: 100%
BMDM [20]
  inhibition: Active
BMDM [21]
  Activity: Active
BMDM [22]
  Activity: Active
BMDM [23]
  Activity: Non-Toxic
BMDM [24]
  Activity: Active
BMDM [25]
  inhibition: Active
Mus musculus [26]
  Activity: Active
BMDM [27]
  inhibition: Active
BMDM [28]
  inhibition: Active
BMDM [29]; 96 h
  IC50: 358 nM
BMDM [29]; dose <= 4000.0 nM, time 4.0 day
  inhibition: Dose-Dependent Effect
BMDM [30]
  inhibition: Active
Mus musculus [31]
  Activity: Active
BMDM [32]
  Activity: Active
BMDM [33]
  inhibition: Active
BMDM [34]
  inhibition: Active
BMDM [2]
  inhibition at 1 µM: 61.5%

## O=C(COc1ccccc1Cl)Nc1ccc(O)cc1N1CCOCC1
BMDM [2]
  inhibition at 1 µM: 27.1%

## NCCCC(O)(P(=O)(O)O)P(=O)(O)O [ALENDRONIC ACID]
BMDM [1]; 0.5 h
  inhibition at 2 µM: 67.9%

## CS(=O)(=O)N(CC(=O)Nc1ccccc1Sc1ccccc1)c1cccc(C(=O)Oc2ccc(NC(=O)COc3ccccc3Cl)c(N3CCOCC3)c2)c1
BMDM [2]
  inhibition at 1 µM: 50.9%

## CC(=O)Nc1ccc(S(=O)(=O)Oc2ccc(N)c(N3CCOCC3)c2)cc1
BMDM [2]
  inhibition at 1 µM: 11.3%

## CCC(=O)N1CCN(c2ccccc2NC(=O)COc2ccccc2Cl)CC1
Mus musculus [12]
  Activity: Active
BMDM [35]
  inhibition: Active
BMDM [2]
  inhibition at 1 µM: 42%

## Cc1ccc(OCC(=O)Nc2cccc(Cl)c2N2CCOCC2)c(C(C)C)c1
BMDM [1]; 0.5 h
  inhibition at 2 µM: 86.4%
BMDM [3]
  inhibition at 2 µM: 82.9%

## CC(C)(C)[Si](C)(C)Oc1ccc(NC(=O)COc2ccccc2Cl)c(N2CCOCC2)c1
BMDM [2]
  inhibition at 1 µM: 34.8%

## Cc1ccc(S(=O)(=O)CC(=O)Nc2cc(Cl)ccc2N2CCOCC2)cc1
BMDM [1]; 0.5 h
  inhibition at 2 µM: 30.9%

## O=C(COc1ccccc1Cl)Nc1ccc(OC(=O)c2ccco2)cc1N1CCOCC1
BMDM [2]
  inhibition at 1 µM: 31.4%

## CC(C)(C)OC(=O)N[C@@H](Cc1cn(C(=O)OC(C)(C)C)cn1)C(=O)Oc1ccc(NC(=O)COc2ccccc2Cl)c(N2CCOCC2)c1
BMDM [2]
  inhibition at 1 µM: 34.6%

## Cc1cccc(OCC(=O)Nc2ccccc2N2CCOCC2)c1C
BMDM [1]; 0.5 h
  inhibition at 2 µM: 13.6%

## CCCN(CCC)S(=O)(=O)c1ccc(C(=O)Oc2ccc(NC(=O)COc3ccccc3Cl)c(N3CCOCC3)c2)cc1
BMDM [2]
  inhibition at 1 µM: 21.6%

## O=C(COc1ccccc1Cl)Nc1ccc(OC(=O)c2cccs2)cc1N1CCOCC1
BMDM [2]
  inhibition at 1 µM: 39.3%

## CC(Oc1ccc(Cl)cc1Cl)C(=O)Nc1cccc(Cl)c1N1CCOCC1 (configuration not stated)
BMDM [1]; 0.5 h
  inhibition at 2 µM: 43.4%

## O=C(CSc1cccc2ccccc12)Nc1ccccc1N1CCOCC1
BMDM [1]; 0.5 h
  inhibition at 2 µM: 61.3%

## O=C(COc1ccccc1Cl)Nc1ccc(OC(=O)c2ccccc2F)cc1N1CCOCC1
BMDM [2]
  inhibition at 1 µM: 34.2%

## Cc1cc(=O)oc2cc(OCC(=O)Nc3cc(C(F)(F)F)ccc3N3CCOCC3)ccc12
BMDM [1]; 0.5 h
  inhibition at 2 µM: 95.3%
BMDM [3]
  inhibition at 2 µM: 29.4%

## O=C(COc1ccccc1Cl)Nc1ccccc1N1CCOCC1
BMDM [2]
  inhibition at 1 µM: 21%

## CCC(=O)Oc1ccc(NC(=O)COc2ccccc2Cl)c(N2CCOCC2)c1
BMDM [2]
  inhibition at 1 µM: 32.8%

## Cc1cc(OCC(=O)Nc2ccccc2N2CCOCC2)cc(C)c1Cl
BMDM [1]
  inhibition: inactive
